Values of other authors, collected in patent US20150231081A1, “DELAYED RELEASE POSACONAZOLE TABLETS” (CADILA HEALTHCARE LIMITED, priority 2014, published 2015).
Where two headings read alike, the source gives them in different places.

For `CC[C@@H]([C@H](C)O)n1ncn(-c2ccc(N3CCN(c4ccc(OC[C@@H]5CO[C@@](Cn6cncn6)(c6ccc(F)cc6F)C5)cc4)CC3)cc2)c1=O` [Posaconazole free base, 4-[4-[4-[4-[[(3R,5R)-5-(2,4-difluorophenyl)tetrahydro-5-(1H-1,2,4-triazol-1-ylmethyl)-3-furanyl]methoxy]phenyl]-1-piperazinyl]phenyl]-2-[(1S,2S)-1-ethyl-2-hydroxypropyl]-2,4-dihydro-3H-1,2,4-triazol-3-one], which solubility (environments where the pH is about pH 6.4 or more basic) is on record?
The solubility was “less than 1 microgram/mL”.

And the solubility (in stomach pH)?
Its solubility is “approximately 0.8 mg/mL”.
